# Results taken from patent US11590129B2, “Combination therapy with an antitumor alkaloid” (PHARMA MAR, S.A., priority 2010, dated 2023).
# Tests used:
# A2780 tumors = assay: Human ovarian tumor xenografts (A2780) in athymic nude mice, tumor volume % T/C; format: in vivo; details: PM01183 0.18 mg/kg iv days 0,7
# Description: (§1) Female athymic nude mice (Harlan Laboratories Models, S.L. (Barcelona, Spain) were utilized for all experiments. Animals were housed in individually ventilated cages, up to ten per cage in a 12-hour light-dark cycle at 21-23° C. and 40-60% humidity. The mice were allowed free access to irradiated standard rodent diet and sterilized water. Animals were acclimated for at least 5 days prior to tumor implantation with a tumor cell suspension.
# The formula to calculate volume for a prolate ellipsoid was used to estimate tumor volume (mm^3) from 2-dimensional tumor measurements: Tumor volume (mm^3)=[L×W^2]÷2, where L is the length and it is the longest diameter in mm, and W is the width and it is the shortest diameter in mm of a tumor. Assuming unit density, volume was converted to weight (i.e., 1 mm^3=1 mg). Tumor volume and animal body weights were measured 2-3 times per week starting form the first day of treatment (Day 0).
# PM01183 was provided in the form of vials of lyophilized PM01183 cake which was reconstituted with water for infusion to a concentration of 0.2 mg/mL. The PM01183 stock solution was further diluted in 5% glucose solution for injection to the dosing formulation concentrations. […] Vinorelbine was provided as a solution prepared by diluting the product with 0.9% saline solution.
# (§2) Dose level groups were administered either as single agents or in combination.
# (§3) Comparison of the median tumor volume in the treatment groups (T) to the median tumor volume in the control group (T/C×100%) was used for evaluation of the antitumor efficacy.
# Day 9 for PM01183 and vinorelbine study) using the median-effect principle (Chou T. C. Pharmacol. Rev.
# SW1990 tumors = assay: Human pancreatic tumor xenografts (SW1990) in athymic nude mice, tumor volume % T/C; format: in vivo
# Description: as §1
# Each animal was subcutaneously implanted on the right flank, using 26G needle and a 1 cc syringe, with 5×10^6 SW1990 cells, from in vitro passage 12, in 0.05 mL suspension of 50% Matrigel and 50% serum free medium, without antibiotics.
# PM01183 was provided in the form of vials of lyophilized PM01183 cake which was reconstituted with water for infusion to a concentration of 0.2 mg/mL. The PM01183 stock solution was further diluted in 5% glucose solution for injection to the dosing formulation concentrations.
# as §2, §3
# [1] = PM01183 0.045 mg/kg iv days 0,7,14
# [2] = PM01183 0.09 mg/kg iv days 0,7,14
# [3] = PM01183 0.135 mg/kg iv days 0,7,14
# [4] = PM01183 0.18 mg/kg iv days 0,7,14
compound,measurement,setting,value
COc1ccc2[nH]c3c(c2c1)CCN[C@]31CS[C@@H]2c3c(OC(C)=O)c(C)c4c(c3[C@H](COC1=O)N1[C@@H]2[C@H]2c3c(cc(C)c(OC)c3O)C[C@@H]([C@@H]1O)N2C)OCO4 [PM01183],% T/C on day 10,A2780 tumors; paclitaxel study,52.8%
same,% T/C on day 0,A2780 tumors; vinorelbine study,98.9%
same,% T/C on day 2,A2780 tumors; vinorelbine study,101.6%
same,% T/C on day 5,A2780 tumors; vinorelbine study,72.2%
same,% T/C on day 7,A2780 tumors; vinorelbine study,61.3%
same,% T/C on day 9,A2780 tumors; vinorelbine study,62.8%
same,% T/C on day 0,SW1990 tumors; [1],100.2%
same,% T/C on day 3,SW1990 tumors; [1],83.6%
same,% T/C on day 6,SW1990 tumors; [1],82.8%
same,% T/C on day 8,SW1990 tumors; [1],93.3%
same,% T/C on day 10,SW1990 tumors; [1],82.9%
same,% T/C on day 13,SW1990 tumors; [1],88.1%
same,% T/C on day 15,SW1990 tumors; [1],92.6%
same,% T/C on day 17,SW1990 tumors; [1],86.5%
same,% T/C on day 20,SW1990 tumors; [1],85.1%
same,% T/C on day 22,SW1990 tumors; [1],84.5%
same,% T/C on day 24,SW1990 tumors; [1],85.8%
same,% T/C on day 28,SW1990 tumors; [1],85.4%
same,% T/C on day 0,SW1990 tumors; [2],101.1%
same,% T/C on day 3,SW1990 tumors; [2],81.5%
same,% T/C on day 6,SW1990 tumors; [2],72.8%
same,% T/C on day 8,SW1990 tumors; [2],68.7%
same,% T/C on day 10,SW1990 tumors; [2],68.4%
same,% T/C on day 13,SW1990 tumors; [2],74.4%
same,% T/C on day 15,SW1990 tumors; [2],74.7%
same,% T/C on day 17,SW1990 tumors; [2],80.7%
same,% T/C on day 20,SW1990 tumors; [2],71.9%
same,% T/C on day 22,SW1990 tumors; [2],75.4%
same,% T/C on day 24,SW1990 tumors; [2],77.3%
same,% T/C on day 28,SW1990 tumors; [2],63.9%
same,% T/C on day 0,SW1990 tumors; [3],99.6%
same,% T/C on day 3,SW1990 tumors; [3],81.3%
same,% T/C on day 6,SW1990 tumors; [3],71.0%
same,% T/C on day 8,SW1990 tumors; [3],73.1%
same,% T/C on day 10,SW1990 tumors; [3],65.6%
same,% T/C on day 13,SW1990 tumors; [3],63.1%
same,% T/C on day 15,SW1990 tumors; [3],56.3%
same,% T/C on day 17,SW1990 tumors; [3],56.7%
same,% T/C on day 20,SW1990 tumors; [3],56.9%
same,% T/C on day 22,SW1990 tumors; [3],56.5%
same,% T/C on day 24,SW1990 tumors; [3],53.0%
same,% T/C on day 28,SW1990 tumors; [3],51.7%
same,% T/C on day 0,SW1990 tumors; [4],100.0%
same,% T/C on day 3,SW1990 tumors; [4],74.3%
same,% T/C on day 6,SW1990 tumors; [4],61.3%
same,% T/C on day 8,SW1990 tumors; [4],59.4%
same,% T/C on day 10,SW1990 tumors; [4],56.7%
same,% T/C on day 13,SW1990 tumors; [4],56.1%
same,% T/C on day 15,SW1990 tumors; [4],53.2%
same,% T/C on day 17,SW1990 tumors; [4],47.8%
same,% T/C on day 20,SW1990 tumors; [4],44.2%
same,% T/C on day 22,SW1990 tumors; [4],45.3%
same,% T/C on day 24,SW1990 tumors; [4],44.8%
same,% T/C on day 28,SW1990 tumors; [4],38.9%
